Active and inactive are the calls of the source. How the calls were made is not given here.
Molecular target: Serine/threonine-protein kinase mTOR (Homo sapiens) (UniProt P42345)
Experiment: mTOR FRB domain ligand binding – biophysical, NMR (AID 1648)
Details: NMR binding to FRB domain, chemical shift

Serine/threonine-protein kinase mTOR (Homo sapiens), sequence (P42345 2015-2114): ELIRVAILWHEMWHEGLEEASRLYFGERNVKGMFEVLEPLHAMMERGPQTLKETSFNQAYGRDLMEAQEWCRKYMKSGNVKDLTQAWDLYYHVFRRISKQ

| SMILES | Kd |
| --- | --- |
| O=C1NC(=O)/C(=C\c2ccco2)S1 | > 4 mM (inactive) |
| O=C(Nc1ccc(N2CCOCC2)cc1)c1cnsn1 | > 4 mM (inactive) |
| C=CCc1cc(C(=O)N2CCCCC2)ccc1O | > 4 mM (inactive) |
| Cc1ccc(SCCN2C(=O)NC(C)(C)C2=O)cc1 | > 4 mM (inactive) |
| COc1ccc2nc(NC(=O)c3cnccn3)sc2c1 | > 4 mM (inactive) |
| Cc1ccccc1N1C(=O)CC(=O)NC1=O | > 4 mM (inactive) |
| O=c1ccn(Cc2ccccc2)c(=O)n1Cc1ccccc1 | > 4 mM (inactive) |
| COC(=O)N(c1ccccc1)P1(=S)OCCO1 | > 4 mM (inactive) |
| OC(CCl)c1ccc(-n2cncn2)cc1 (stereo unspecified) | > 4 mM (inactive) |
| CCC(C)C(=O)O[C@H]1[C@H](O)C2C(CN3CC(C)CCC3[C@@]2(C)O)C2C[C@]34O[C@]5(O)C(OC(=O)C(C)(O)C(C)O)CC[C@@]3(C)C5C(OC(C)=O)[C@@H](OC(C)=O)C4[C@@]21O (stereo partly specified) | > 4 mM (inactive) |
| Cc1ccc(O)c(NC(=O)c2ccco2)c1 | > 4 mM (inactive) |
| COC(=O)[C@@H]1C(O)CC[C@H]2CN3CCc4c([nH]c5ccccc45)[C@@H]3C[C@@H]21 (stereo partly specified) | > 4 mM (inactive) |
| NC(=O)c1ccc(C(N)=O)cc1 | > 4 mM (inactive) |
| C[C@@H]1[C@H]2[C@H](O[C@@H]3O[C@H](CO)[C@@H](O)[C@H](O)[C@H]3O)OC=C(C(=O)O)[C@H]2C[C@@H]1O | > 4 mM (inactive) |
| Cc1nnc(SCC(=O)N2CCc3ccccc32)s1 | > 4 mM (inactive) |
| CC(=O)Nc1cccc(-c2nnc3n2CC(C)S3)c1 (stereo unspecified) | > 4 mM (inactive) |
| CS(=O)(=O)Nc1nnc(Cc2ccccc2)s1 | > 4 mM (inactive) |
| CCn1cnc2cc([N+](=O)[O-])ccc2c1=O | > 4 mM (inactive) |
| CC(=O)c1c(C)nc(-c2ccc(F)cc2)n1O | > 4 mM (inactive) |
| CC(=O)NC12CC3CC(CC(O)(C3)C1)C2 | > 4 mM (inactive) |
| OC1CCN(c2nccc(C(F)(F)F)n2)CC1 | > 4 mM (inactive) |
| CC(=O)c1ccc[nH]1 | > 4 mM (inactive) |
| CC(=O)NC1(NC(C)=O)CCN(C)CC1 | > 4 mM (inactive) |
| CC(=O)OCC(OC(C)=O)C(OC(C)=O)C(OC(C)=O)C(OC(C)=O)C(COC(C)=O)OC(C)=O (stereo unspecified) | > 4 mM (inactive) |

| SMILES | Kd |
| --- | --- |
| COc1ccc(-c2noc(-c3ccco3)n2)cc1OC | > 4 mM (inactive) |
| O=C1NC(=O)C2C3C=CC(O3)C12 (stereo unspecified) | > 4 mM (inactive) |
| O=C1C2CC=CCC2C(=O)N1c1cccc(O)c1 (stereo unspecified) | > 4 mM (inactive) |
| CC(C)=CCCC1(C)C=Cc2c(O)c3c(c(CC=C(C)C)c2O1)OC12C(=CC4CC1C(C)(C)OC2(C/C=C(/C)C(=O)O)C4=O)C3=O (stereo unspecified) | > 4 mM (inactive) |
| Nc1ccc2ncsc2c1 | > 4 mM (inactive) |
| Cc1cc(C(=O)O)n[nH]1 | > 4 mM (inactive) |
| c1ccc(C2NCCc3[nH]cnc32)cc1 (stereo unspecified) | > 4 mM (inactive) |
| O=[N+]([O-])c1cccc(-c2nnco2)c1 | > 4 mM (inactive) |
| CC1CCc2cc(F)ccc2N1C(=O)c1ccc(=O)[nH]n1 (stereo unspecified) | > 4 mM (inactive) |
| Cc1cc(C)n(-c2nc(C)nc(N)n2)n1 | > 4 mM (inactive) |
| Clc1ncc2[nH]cnc2n1 | > 4 mM (inactive) |
| Nc1cccc2c(=O)[nH][nH]c(=O)c12 | > 4 mM (inactive) |
| Cn1cnc2ccc([N+](=O)[O-])cc2c1=O | > 4 mM (inactive) |
| O=C1CC(=O)N2N=C(c3ccccc3)SC2=N1 | > 4 mM (inactive) |
| CCc1nnsc1C(=O)Nc1nccs1 | > 4 mM (inactive) |
| Nc1nc(SCC(=O)c2ccc([N+](=O)[O-])cc2)n[nH]1 | > 4 mM (inactive) |
| CC1(C)C2C[C@@H](O)[C@]3(C)C(CC[C@@]4(C)[C@H](c5ccoc5)OC(=O)[C@H]5O[C@]543)[C@@]2(C)[C@@H](O)C[C@H]1O (stereo partly specified) | > 4 mM (inactive) |
| CC(=O)O[C@H]1C(=O)[C@@]2(C)C([C@H](OC(=O)c3ccccc3)[C@]3(O)C[C@H](OC(=O)[C@H](O)[C@@H](NC(=O)c4ccccc4)c4ccccc4)C(C)=C1C3(C)C)[C@]1(OC(C)=O)CO[C@@H]1C[C@@H]2O (stereo partly specified) | > 4 mM (inactive) |
| CN1CCC(NC(=O)C2CCCO2)CC1 (stereo unspecified) | > 4 mM (inactive) |
| Cc1cc(C)n2nc(C(=O)Nc3cccnc3)nc2n1 | > 4 mM (inactive) |
| CC1CN=C(Nc2ccccc2)S1 (stereo unspecified) | > 4 mM (inactive) |
| Oc1cccc(N2CCOCC2)c1 | > 4 mM (inactive) |
| O=CN1CCN(C2CC(=O)N(c3ccccc3)C2=O)CC1 (stereo unspecified) | > 4 mM (inactive) |
| Cc1ccc(C(=O)n2cnnc2N)cc1C | > 4 mM (inactive) |

| SMILES | Kd |
| --- | --- |
| O=C(NC(O)C(=O)c1ccccc1)c1ccco1 (stereo unspecified) | > 4 mM (inactive) |
| CC(=O)NC1=NN(c2ccccc2)C(=O)C1 | > 4 mM (inactive) |
| COc1ccccc1CNc1nc2nc(C)cc(=O)n2[nH]1 | > 4 mM (inactive) |
| C[C@H]1[C@H](C)CC[C@]2(C(=O)O)CC[C@]3(C)C(=CCC4[C@@]5(C)C[C@@H](O)[C@H](O)[C@@](C)(CO)C5[C@H](O)C[C@]43C)[C@H]12 (stereo partly specified) | > 4 mM (inactive) |
| Oc1ccc(C(=S)N2CCOCC2)cc1 | > 4 mM (inactive) |
| O=C(Nc1ccccc1CO)c1ccccc1F | > 4 mM (inactive) |
| Cc1ccc(F)cc1NC(=O)c1ccc2c(c1)OCO2 | > 4 mM (inactive) |
| O=C(NCc1cccc(Cl)c1)c1cccnc1 | > 4 mM (inactive) |
| CN(C)c1nc(N)nc(Cn2ccnc2)n1 | > 4 mM (inactive) |
| OC/C=C/c1ccc(O)c(O)c1 | > 4 mM (inactive) |
| O=C(O)c1cc2ccccc2cn1 | > 4 mM (inactive) |
| CC(=O)Nc1ccc(S(=O)(=O)N(C)C)cc1 | > 4 mM (inactive) |
| CC(=O)c1cc(C(N)=O)c(=S)[nH]c1C | > 4 mM (inactive) |
| COC(=O)Cn1c2ccccc2c2nc(C)sc21 | > 4 mM (inactive) |
| Cc1cc(NC(=O)CS(=O)(=O)c2ccccc2)no1 | > 4 mM (inactive) |
| Cc1nnc(C)n1/N=C/c1cccs1 | > 4 mM (inactive) |
| O=C1NC(=O)C(C2SC(=O)NC2=O)S1 (stereo unspecified) | > 4 mM (inactive) |
| CC1=CC2C(CC1=O)C(C)=CCC2C(C)C (stereo unspecified) | > 4 mM (inactive) |
| Cc1n[nH]c(=O)c2ncn(C)c12 | > 4 mM (inactive) |
| Cc1cc(C)c(NC(=O)CN2CCC(O)CC2)c(C)c1 | > 4 mM (inactive) |
| O=C(Nc1nnc(-c2cccnc2)o1)c1ccccc1F | > 4 mM (inactive) |
| CCN1CCc2c(sc(N)c2C#N)C1 | > 4 mM (inactive) |
| CC(NC(=O)c1ccco1)c1ccc2c(c1)OCCO2 (stereo unspecified) | > 4 mM (inactive) |
| O=C(O)Cn1nnnc1-c1ccc(F)cc1 | > 4 mM (inactive) |

| SMILES | Kd |
| --- | --- |
| CC1=NNC(=O)C1CCc1ccncc1 (stereo unspecified) | > 4 mM (inactive) |
| Cc1ccc(NC(=O)C2CCCNC2=O)nc1 (stereo unspecified) | > 4 mM (inactive) |
| O=C1CSC(=Nc2ccccc2[N+](=O)[O-])N1 | > 4 mM (inactive) |
| O=C(Nc1nncs1)c1c(F)c(F)c(F)c(F)c1F | > 4 mM (inactive) |
| CCOC(=O)C1C(=O)C2CCN1CC2 (stereo unspecified) | > 4 mM (inactive) |
| CN1CCN(C(=O)Nc2cccc3ccccc23)CC1 | > 4 mM (inactive) |
| Cc1nnc(N2CCN(c3ccccc3)CC2)[nH]c1=O | > 4 mM (inactive) |
| CCOC(=O)c1c(SC)nc(=O)[nH]c1C | > 4 mM (inactive) |
| Nc1cc(N)nc(SCc2cccnc2)n1 | > 4 mM (inactive) |
| O=CN1CCN(C(=O)c2ccco2)CC1 | > 4 mM (inactive) |
| CC(=O)Nc1nc(C)nc(-c2ccccc2)c1C(C)=O | > 4 mM (inactive) |
| OC1CC2CCC1C2 (stereo unspecified) | > 4 mM (inactive) |
| Cc1cc(C)n(-c2ccc(N)cc2)n1 | > 4 mM (inactive) |
| Cc1ccc2[nH]cc(CCN)c2c1 | > 4 mM (inactive) |
| COc1ccc(C2NC(C(=O)O)CS2)cc1 (stereo unspecified) | > 4 mM (inactive) |
| O=C(O)c1ccc(NC(=O)c2cccs2)cc1 | > 4 mM (inactive) |
| Cc1oc2nc3c(c(=O)[nH]c(=O)n3C)n2c1C | > 4 mM (inactive) |
| O=C(Nc1ccon1)c1csc2c1CCCC2 | > 4 mM (inactive) |
| NC(=O)c1ccc(NC(=O)C2CC2)cc1 | > 4 mM (inactive) |
| NC1=NC(=O)/C(=C\c2ccco2)S1 | > 4 mM (inactive) |
| NC(=O)C1CCN(S(=O)(=O)c2ccccc2)CC1 | > 4 mM (inactive) |
| Cc1cc(C)n2nc(-c3cccnc3)nc2n1 | > 4 mM (inactive) |
| CC(=O)O[C@@H]1CC2C(C)(C)[C@H](O)C[C@H](O)[C@]2(C)C2CC[C@@]3(C)C(=CC(=O)O[C@H]3c3ccoc3)[C@@]21C (stereo partly specified) | > 4 mM (inactive) |
| O=C(NCCO)c1ccccc1I | > 4 mM (inactive) |

| SMILES | Kd |
| --- | --- |
| OCC1Cc2ccccc2CN1 (stereo unspecified) | > 4 mM (inactive) |
| O=S(=O)(Cc1ccc(Cl)cc1)N1CCCC1 | > 4 mM (inactive) |
| COC(=O)Cc1cc(=O)n(-c2nc3ccccc3s2)[nH]1 | > 4 mM (inactive) |
| Nc1ncnc(NCCO)c1[N+](=O)[O-] | > 4 mM (inactive) |
| O=C(NCc1ccc2c(c1)OCO2)c1cccs1 | > 4 mM (inactive) |
| CN(C)CC(O)C1CCOC(C)(C)C1 (stereo unspecified) | > 4 mM (inactive) |
| O=c1/c(=C\c2cccnc2)sc2nc3ccccc3n12 | > 4 mM (inactive) |
| C=CCc1ccc2c(c1)OCO2 | > 4 mM (inactive) |
| Cc1ccc(N2C(=O)CC(Sc3ncn[nH]3)C2=O)cc1 (stereo unspecified) | > 4 mM (inactive) |
| CC(=O)Oc1cc2c(C(C)=O)coc2c2ccccc12 | > 4 mM (inactive) |
| Cc1ccc(C(=O)CS(C)(=O)=O)cc1 | > 4 mM (inactive) |
| CC1(C)CN=C(Nc2nc3ccccc3s2)S1 | > 4 mM (inactive) |
| CCOC(=O)C1CCN(Cc2ccccc2)CC1=O (stereo unspecified) | > 4 mM (inactive) |
| CCC1=Nc2ccccc2-c2nnc(SC)nc2O1 | > 4 mM (inactive) |
| O=c1[nH]cc(S(=O)(=O)Nc2ccccc2)c(=O)[nH]1 | > 4 mM (inactive) |
| CCn1c(C)c(C(C)=O)c(N2CCN(C)CC2)nc1=S | > 4 mM (inactive) |
| NC(Cc1c[nH]c2ccccc12)C(=O)O (stereo unspecified) | > 4 mM (inactive) |
| O=C(O)C1=CCCNC1 | > 4 mM (inactive) |
| CC(=O)OC(C)(C)[C@@H]1Cc2cc3ccc(=O)oc3cc2O1 | > 4 mM (inactive) |
| CC(=O)Nc1ccc(S(=O)(=O)Nc2cc(C)on2)cc1 | > 4 mM (inactive) |
